In PubChem BioAssay (NCI) one finds TGI and GI50 data, which are given here for 27 compounds.

Several values for one entry are separate records, joined by “and”; a condition that tells them apart may be missing. Identical values can stand only once.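 Protocol summary: plate cells (96-well), add compound at 5 concentrations, incubate 48 h, interpolate endpoints linearly. GI50 = concentration required for 50% inhibition of growth. TGI: concentration producing complete growth inhibition.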

Some test systems named below: IGROV1 ovarian; MOLT-4 leukemia; MDA-MB-435; NCI-H522 lung.
Test in all cases: growth of human tumour cells (NCI), 48 h

Regarding `CCOC(=O)C(NC(=O)Nc1ccccc1F)(OC)C(F)(F)F` (stereo not drawn), the TGI in the experiment with IGROV1 ovarian, in the experiment on MOLT-4 leukemia and in the experiment on MDA-MB-435 was over 100 µM throughout.

In the case of `COc1cc([C@@H]2c3cc4c(cc3[C@@H](N=Cc3ccc(C(=O)O[C@H]5C[C@H]6OC[C@@]6(OC(C)=O)[C@H]6[C@H](OC(=O)c7ccccc7)[C@]7(O)C[C@H](OC(=O)[C@H](OC(=O)c8ccc(C=N[C@@H]9c%10cc%11c(cc%10[C@@H](c%10cc(OC)c(O)c(OC)c%10)[C@H]%10C(=O)OC[C@@H]%109)OCO%11)cc8)[C@@H](NC(=O)c8ccccc8)c8ccccc8)C(C)=C([C@@H](OC(C)=O)C(=O)[C@]56C)C7(C)C)cc3)C3COC(=O)C32)OCO4)cc(C)c1O` (stereo partly drawn), the TGI is over 50 µM in the experiment on IGROV1 ovarian, over 50 µM with MOLT-4 leukemia, 9.32 µM in the experiment on MDA-MB-435 and over 50 µM with NCI-H522 lung.

`N/C(=N/O)c1cn(C2OC(CO)C(O)C2O)c2ncnc(NO)c12` (stereo not drawn): the TGI in the experiment on IGROV1 ovarian was over 51 µM; with MOLT-4 leukemia, 0.395 µM; in the experiment on MDA-MB-435, 0.805 µM; in the experiment on NCI-H522 lung, 0.392 µM.

Consider `COC(=O)C(NC(=O)C12CCC(C)(C(=O)O1)C2(C)C)c1cc(C(C)(C)C)c(O)c(C(C)(C)C)c1` (stereo not drawn), for which the TGI in the experiment on IGROV1 ovarian, in the experiment on MOLT-4 leukemia, with MDA-MB-435 and with NCI-H522 lung was over 100 µM each time.

Take `Cc1oc2nc(N(C)C)n3c(C)nnc3c2c1C`: the TGI in the experiment on IGROV1 ovarian, in the experiment on MOLT-4 leukemia, with MDA-MB-435 and with NCI-H522 lung was over 100 µM throughout.

`CC(=O)/C(=C\n1c(=S)[nH]c2ccc([N+](=O)[O-])cc21)C(=O)Nc1ccccc1C`: the TGI with IGROV1 ovarian, in the experiment on MOLT-4 leukemia, with MDA-MB-435 and in the experiment on NCI-H522 lung was over 100 µM each time.

Take `c1ncc(C23C4C5C6C4C2C6C53)[nH]1` (stereo not drawn): the TGI with IGROV1 ovarian, in the experiment with MOLT-4 leukemia and with MDA-MB-435 was over 100 µM throughout.

`Cc1c(O)c(OC2OC(CO)C(O)C(O)C2O)cc2c1CC[C@@H]1C2(C)C(=O)C[C@]2(C)[C@@H]([C@@](C)(O)C(O)CCC(C)(C)O)[C@H](O)C[C@@]12C` (stereo partly drawn): the TGI in the experiment on IGROV1 ovarian, in the experiment with MOLT-4 leukemia, in the experiment on MDA-MB-435 and in the experiment on NCI-H522 lung was over 100 µM throughout.

As to `COc1cc(-c2c(C(C)=O)c(-c3ccccc3)n(C3OC(COC(C)=O)C(OC(C)=O)C(OC(C)=O)C3OC(C)=O)c(=S)c2C#N)ccc1O` (stereo not drawn), the GI50 in the experiment on IGROV1 ovarian is 31.8 µM and > 100 µM; in the experiment with NCI-H522 lung, 18.6 µM and 40.2 µM. In addition, the TGI in the experiment on IGROV1 ovarian is over 100 µM; in the experiment with MOLT-4 leukemia, over 100 µM; in the experiment with MDA-MB-435, over 100 µM; in the experiment with NCI-H522 lung, 90.4 µM and > 100 µM.

As to `COC1(CCO)CC=CCC1(CCO)OC` (stereo not drawn), the TGI in the experiment on IGROV1 ovarian, in the experiment with MOLT-4 leukemia and with NCI-H522 lung was over 100 µM throughout.

As for `CCCCC[C@H]1CC=CC(=O)O1`, the TGI was 27.3 µM in the experiment with IGROV1 ovarian, 18.8 µM in the experiment on MOLT-4 leukemia, 23 µM in the experiment with MDA-MB-435 and 11.8 µM in the experiment with NCI-H522 lung.

Regarding `O=C(CCl)Nc1ccc(-c2nc3ccccc3s2)cc1`, the TGI in the experiment with IGROV1 ovarian stood at 3.3 µM; with MOLT-4 leukemia, 12.8 µM; with MDA-MB-435, 12.2 µM; with NCI-H522 lung, 3.64 µM.

On to `CSC(=S)Nc1cc(C)ccn1`, for which the TGI with IGROV1 ovarian was 58 µM; in the experiment on MOLT-4 leukemia, over 100 µM; with MDA-MB-435 it was over 100 µM; in the experiment with NCI-H522 lung, over 100 µM.

On to `Cc1[nH]c2ncn(N)c(=N)c2c1Cc1ccccc1`, for which the TGI in the experiment on IGROV1 ovarian, with MOLT-4 leukemia, in the experiment on MDA-MB-435 and with NCI-H522 lung was over 100 µM in each case.

Turning to `COc1ccc2c(c1)OCC1Cc3cccc(OC)c3OC21` (stereo not drawn), the TGI was over 100 µM with IGROV1 ovarian, 80.7 µM in the experiment on MOLT-4 leukemia, over 100 µM with MDA-MB-435 and over 100 µM in the experiment on NCI-H522 lung.

In the case of `Brc1ccc(C2(N3CCCCC3)CCCCC2)s1`, the TGI with IGROV1 ovarian was over 100 µM; with MOLT-4 leukemia, 34.2 µM; in the experiment with MDA-MB-435, 73.3 µM; with NCI-H522 lung, over 100 µM.

`CCC/C(Cl)=N/OC(=O)Nc1cccc(F)c1`: the TGI worked out at 27.5 µM in the experiment on IGROV1 ovarian, 5.55 µM in the experiment with MOLT-4 leukemia, 24.8 µM with MDA-MB-435 and 1.05 µM in the experiment with NCI-H522 lung.

As for `O=C(O)C1CCCCN1CCc1c[nH]c2ccccc12` (stereo not drawn), the TGI with IGROV1 ovarian, in the experiment with MOLT-4 leukemia, with MDA-MB-435 and in the experiment on NCI-H522 lung was over 100 µM throughout.

In the case of `C[C@H]1ON2CCC[C@@H]2[C@@H]1C(=O)N1C2CC3CCC2(CS1(=O)=O)C3(C)C` (stereo partly drawn), the TGI in the experiment on IGROV1 ovarian, in the experiment on MDA-MB-435 and with NCI-H522 lung was over 100 µM throughout.

As to `CC(=O)NC1C(OCc2ccccc2)OC(CO)C(O)C1OC(C)C(=O)NC(C(=O)NC(CCC(=O)Nc1ccc2c(c1)CN1C(=O)c3ccccc3C1=N2)C(N)=O)C(C)C` (stereo not drawn), the TGI in the experiment with IGROV1 ovarian, with MOLT-4 leukemia and with MDA-MB-435 was over 100 µM each time.

As for `O=c1[nH]nc(Cc2ccc(Cl)cc2)n1Nc1ccccc1`, the TGI with IGROV1 ovarian, in the experiment with MOLT-4 leukemia and with MDA-MB-435 was over 100 µM in each case.

As to `CC1=NN(c2ccccc2Cl)C2(C1)SCC(=O)N2c1nc2ccccc2s1` (stereo not drawn), the TGI in the experiment with IGROV1 ovarian, with MDA-MB-435 and in the experiment with NCI-H522 lung was over 100 µM in each case.

Turning to `O=C(CC(C(=O)c1ccsc1)c1cccs1)c1ccsc1` (stereo not drawn), the TGI in the experiment with IGROV1 ovarian, in the experiment with MOLT-4 leukemia and in the experiment on MDA-MB-435 was over 100 µM in each case.

For `c1ccc(NC2(c3nnnn3C3CCCCC3)CCNCC2)cc1`, the TGI in the experiment on IGROV1 ovarian is over 100 µM; in the experiment with MOLT-4 leukemia, 43.5 µM; in the experiment with MDA-MB-435, 38 µM.

Turning to `N#CCCN(CCC#N)c1ccc(/C=C2\N=C(c3ccccc3)N(NC(=O)c3ccncc3)C2=O)cc1`, the TGI in the experiment with IGROV1 ovarian, with MOLT-4 leukemia and in the experiment with MDA-MB-435 was over 100 µM throughout.

For the compound `CSc1ccc(C=C2N=C(c3ccccc3)N(c3cc(C(=O)c4ccccc4)ccc3N3C(=O)/C(=C/c4ccc(SC)cc4)N=C3c3ccccc3)C2=O)cc1`, the TGI with IGROV1 ovarian, with MOLT-4 leukemia and in the experiment on MDA-MB-435 was over 100 µM each time.

Regarding `CC(=O)NC1C(OCc2ccccc2)OC(CO)C(O)C1OCC(=O)NC(C)C(=O)NC(CCC(=O)Nc1ccc2c(c1)CN1C(=O)c3ccccc3C1=N2)C(N)=O` (stereo not drawn), the TGI in the experiment on IGROV1 ovarian, with MOLT-4 leukemia and in the experiment on MDA-MB-435 was over 100 µM in each case.
